{"source": "patent US20250134848A1", "about": "“METHOD OF ADMINISTRATION OF […] THE INDUCTION OF TUMOR ASSOCIATED ANTIGENS” (BryoLogyx Inc., priority 2022, published 2025)", "key": {"CD19": {"system": "CD19", "test": "CD19 expression in human PBMC, antibody binding capacity by flow cytometry", "format": "cell-based", "conditions": "FIG. 1", "procedure": "(§1) The ability of bryostatin-1 to promote antigen expression was evaluated in vitro. Human peripheral blood mononuclear cells (PBMC) were cultured according to previously published methods (Ramakrishna et al., 2019). Briefly, cells were washed and then treated with either bryostatin-1 (1 nM) or DMSO (vehicle control) for different times as indicated, ranging from 45 min to 24 hrs. Antibody binding capacity (ABC) was measured by flow cytometry (NCI flow lab); and plotted (FIGS. 1 and 2), either directly or as fold change over DMSO/vehicle control."}, "CD22 [1]": {"system": "CD22", "test": "CD22 expression in human PBMC, antibody binding capacity by flow cytometry", "format": "cell-based", "conditions": "FIG. 2", "procedure": "as §1"}, "CD19 and CD22": {"system": "CD19 and CD22", "test": "Changes in expression of CD19 and CD22 in tumor cell lines and human cells after varying exposure times", "format": "cell-based", "procedure": "We have shown that short exposure to bryostatin-1 in vitro is sufficient to elevate tumor-associated antigen expression. In experiments performed on numerous tumor cell lines and human cells, bryostatin-1 was administered for varying periods of time, ranging from 45 min to 24 hrs, and changes in the expression of CD19 and CD22 were measured. […] This elevation took time to become evident and was maximal at 72 h."}, "antigen expression": {"system": "antigen expression", "conditions": "FIGS. 3A and 3B; Ramakrishna et al. 2019; cited from earlier work"}, "[2]": {"system": "tumor associated antigen expression", "conditions": "animal experiments; cited from earlier work"}, "CD22 [3]": {"system": "CD22", "conditions": "B-cell tumors such as ALL and CLL; cited from earlier work"}, "[4]": {"conditions": "1 nM, 45 min vs 3 hrs or 24 hrs"}, "[5]": {"conditions": "bryostatin-1 1 nM for 45 min, 3 hrs or 24 hrs"}}}
{"smiles": "CCC/C=C/C=C/C(=O)O[C@H]1/C(=C/C(=O)OC)C[C@H]2C[C@H]([C@@H](C)O)OC(=O)C[C@H](O)C[C@@H]3C[C@H](OC(C)=O)C(C)(C)[C@](O)(C[C@@H]4C/C(=C/C(=O)OC)C[C@H](/C=C/C(C)(C)[C@]1(O)O2)O4)O3", "note": "[bryostatin-1]", "values": [{"measurement": "elevation of CD19 after 45 min incubation compared with longer incubations", "setting": "CD19; [4]", "value": "same elevation in antigens as longer incubations"}, {"measurement": "expression of CD19", "setting": "CD19; [5]", "value": "increases in expression of CD19"}, {"measurement": "elevation of CD22 after 45 min incubation compared with longer incubations", "setting": "CD22 [1]; [4]", "value": "same elevation in antigens as longer incubations"}, {"measurement": "expression of CD22", "setting": "CD22 [1]; [5]", "value": "increases in expression of CD22"}, {"measurement": "time at which elevation of antigen expression was maximal", "setting": "CD19 and CD22; exposure 45 min to 24 hrs", "value": 72, "unit": "h"}, {"measurement": "increase in antigen expression after short exposure (45 min) compared with 3 h or 24 h exposure", "setting": "CD19 and CD22; tumor cell lines and human cells, in vitro", "value": "same level of increase in antigen expression as 3 h or 24 h exposure"}, {"measurement": "time for which the increase in antigen expression remains elevated", "setting": "antigen expression", "value": 7, "unit": "days"}, {"measurement": "tumor associated antigen expression after a single intraperitoneal administration", "setting": "[2]", "value": "able to induce an elevation of tumor associated antigen expression"}, {"measurement": "cell-surface expression of CD22", "setting": "CD22 [3]", "value": "increase cell-surface expression of CD22"}]}
